Read-outs that look alike come from different tables or passages of the source.
Experiments:
[1] = biological target: T1, rat OAT1 (Rattus norvegicus, UniProt O35956); test: Uptake of radio labeled substances into oocytes expressing OAT1; format: cell-based
T1 construct: with full-length OAT1 cDNA labeled with; expressed in transfected cells; host or cells: Xenopus laevis oocytes injected with in vitro transcribed cRNA
T1 sequence (O35956 1-551): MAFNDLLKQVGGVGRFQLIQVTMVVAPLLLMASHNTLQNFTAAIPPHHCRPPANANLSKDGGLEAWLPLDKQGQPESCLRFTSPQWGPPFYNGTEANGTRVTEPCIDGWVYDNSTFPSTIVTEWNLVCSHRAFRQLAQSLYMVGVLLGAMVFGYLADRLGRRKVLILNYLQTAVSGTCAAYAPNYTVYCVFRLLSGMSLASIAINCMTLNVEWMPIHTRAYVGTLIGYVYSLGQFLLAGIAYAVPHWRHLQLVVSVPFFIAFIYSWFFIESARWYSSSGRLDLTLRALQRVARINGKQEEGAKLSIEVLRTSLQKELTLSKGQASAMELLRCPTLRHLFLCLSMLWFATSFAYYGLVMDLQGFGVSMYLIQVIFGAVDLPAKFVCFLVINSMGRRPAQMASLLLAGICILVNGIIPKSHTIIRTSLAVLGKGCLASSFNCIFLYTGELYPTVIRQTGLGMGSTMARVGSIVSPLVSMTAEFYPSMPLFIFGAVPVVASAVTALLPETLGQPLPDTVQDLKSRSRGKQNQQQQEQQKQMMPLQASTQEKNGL
Source text: Several radio labeled compounds were examined whether they are taken up into oocytes via OAT1.
Control oocytes were those which were not injected with cRNA.

[2] = biological target: T1, rat OAT1; test: Cis-inhibition of 14C-PAH uptake in oocytes injected with rat OAT1 cRNA; format: cell-based; settings: 2 μM 14C-PAH, 2 mM non-labeled substance, ND96 solution; for inhibition at 1 h, 2 mM: rat, oocytes injected with rat OAT1 cRNA, probe 14C-PAH (p-aminohippurate), read-out: inhibition of OAT1-mediated 14C-PAH uptake
[3] = tested on: basolateral organic anion transport system; settings: Ullrich and Rumrich, Am. J. Physiol. 254, F453-462, 1988; read-out: Km value previously reported for the basolateral organic anion transport system; cited from earlier work
[4] = versus control oocytes not injected with cRNA

SMILES | transport of radio labeled substance into oocytes expressing OAT1 [1, 4] | cis-inhibitory effect on OAT1-mediated 14C-PAH uptake (in words) [2] | inhibition at 1 h, 2 mM [2] | also measured
CC[N+](CC)(CC)CC [^14C-TEA, tetraethylammonium, reference compound] | not detected |  |  | 
CCCC(CCC)C(=O)O [valproic acid] |  |  | > 85% | 
Nc1ncnc2c1ncn2[C@@H]1O[C@@H]2COP(=O)(O)O[C@H]2[C@H]1O [cyclic-AMP] |  | inhibited |  | transport of radio labeled substance into oocytes expressing OAT1 [1]: transported
C[C@H](CCC(=O)NCCS(=O)(=O)O)[C@H]1CC[C@H]2[C@@H]3[C@H](O)C[C@@H]4C[C@H](O)CC[C@]4(C)[C@H]3C[C@H](O)[C@]12C [^3H-taurocholic acid, taurocholic acid] |  |  |  | transport of radio labeled substance into oocytes expressing OAT1 [1]: not detected
Nc1ccc(C(=O)NCC(=O)O)cc1 [PAH, para-aminohippurate] |  |  |  | Km [3]: 80 µM

Continued, in another order:

transport of radio labeled substance into oocytes expressing OAT1 [1, 4] | cis-inhibitory effect on OAT1-mediated 14C-PAH uptake (in words) [2] | inhibition at 1 h, 2 mM [2] | SMILES | also measured
transported | inhibited |  | Nc1nc2c(ncn2[C@@H]2O[C@@H]3COP(=O)(O)O[C@H]3[C@H]2O)c(=O)[nH]1 [cyclic-GMP] | 
 |  | > 85% | CCn1cc(C(=O)O)c(=O)c2ccc(C)nc21 [nalidixic acid] | 
transported | inhibited |  | O=c1[nH]c(=O)c2[nH]c(=O)[nH]c2[nH]1 [uric acid] | 
 |  | > 85% | C=C(CC)C(=O)c1ccc(OCC(=O)O)c(Cl)c1Cl [ethacrynic acid] | 
 |  | > 85% | COc1ccc2c(c1)c(CC(=O)O)c(C)n2C(=O)c1ccc(Cl)cc1 [indomethacin] | 
